The values below come from US20250255994A1, “DIMERIC IMMUNOCONJUGATES FOR USE IN TREATING CANCERS AND METHODS OF USE” (Medicovestor, Inc., priority 2023, published 2025).

For orientation: IC50 means the concentration that gives 50% inhibition. As a reminder, the koff is a measure of how fast the partners let go of each other. The term kon denotes a measure of how fast the partners come together. In general, Kd refers to the equilibrium constant for the complex coming apart.

Series [1] deals with SK-OV-3 cells. Briefly: SK-OV-3 cytotoxicity assay (luminescence), Example 9. Type of series: cell-based, human. Particulars: SK-OV-3 cells at 2000 cells/well; five additional days. How it is done:
The SK-OV-3 cells are then treated with various concentrations of (1) the SP17-AB2 antibody, (2) the SP17-AB2-DXD immunoconjugate, (3) the SP17-AB2-Ozogamicin immunoconjugate, (4) both the SP17-AB2-DXD immunoconjugate and the SP17-AB2-Ozogamicin, (5) the dSP17-AB2-DXD/Ozogamicin immunoconjugate, (6) hdSP17-AB2, (7) hIgG4, or (8) deruxtecan. […] IC50s and maximum cytotoxicity are then determined.
The IC50 of (4) the combination of SP17-AB2-DXD and SP17-AB2-Ozogamicin is determined based on the concentration of SP17-AB2-DXD and SP17-AB2-Ozogamicin individually and not based on the combined concentration. For example, when SK-OV-3 cells are incubated at a concentration of SP17-AB2-DXD and SP17-AB2-Ozogamicin of 128 nanomolar each, then the IC50 is calculated based on the 128 nanomolar concentration (and not the 256 nanomolar combined concentration) so that 128 nanomolar of (4) SP17-AB2-DXD and SP17-AB2-Ozogamicin contains about the same concentration of deruxtecan, ozogamicin, and antigen-binding sites as 128 nanomolar of (5) the dSP17-AB2-DXD/Ozogamicin immunotherapeutic.

The subject of series [2] is SK-OV-3 cells. Briefly: SK-OV-3 cytotoxicity assay (luminescence), Example 4. Particulars: 5 or 6 additional days; for Max Cytotoxicity: FIG. 9 axis: percent cytotoxicity. How it is done:
SK-OV-3 cells were seeded at 1000, 2000, or 3000 cells per well and incubated overnight in advance of a cytotoxicity assay. […] The SK-OV-3 cells were treated with various concentrations of the SP17-AB2 antibody, the SP17-AB2-DXD immunoconjugate, a control human IgG4 antibody (hIgG4), or deruxtecan alone (DXD). The cells were incubated for 5 or 6 additional days, and cytotoxicity was then measured using a luminescence assay and En Vision™ plate reader (PerkinElmer, Massachusetts, United States).

For the next series, the system named is ID8 cells. Briefly: ID8 cytotoxicity assay, Example 4. Type of series: cell-based, mouse. As to conditions: 3 additional days, FIG. 10 axis: percent cytotoxicity. The procedure:
[…] The cells were then treated with various concentrations of either the SP17-AB2 antibody, the SP17-AB2-DXD immunoconjugate, hIgG4, or deruxtecan alone. The cells were incubated for 3 additional days, and then cytotoxicity was measured.

The target of series [3] is T1, recombinant 6His-Sp17 protein (human, UniProt Q15506 1-151).
T1 construct: Analyte of the surface plasmon resonance experiment; not shown: 6His tag
T1 sequence (looked up): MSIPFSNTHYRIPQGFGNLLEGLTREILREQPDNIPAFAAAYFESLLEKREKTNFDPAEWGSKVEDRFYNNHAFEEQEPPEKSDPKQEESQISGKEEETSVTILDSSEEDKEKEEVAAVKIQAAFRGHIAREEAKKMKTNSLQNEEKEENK
Briefly: surface plasmon resonance, 6His-Sp17 at 6.25-300 nanomolar as analyte. The text has this:
(§1) The lines correspond, from highest to lowest, to fitted cycles for 300 nanomolar, 100 nanomolar, 50 nanomolar, 25 nanomolar, 12.5 nanomolar, and 6.25 nanomolar concentrations of 6His-Sp17.
(§2) The nucleotide sequences encoding the VH and VL regions of Example 1 were cloned into a […] heavy chain gene and a mouse kappa light chain gene, respectively, and expressed in CHO-S cells to produce a mouse-human chimeric antibody, which was named chAB2. Successful generation of the antibody was confirmed by SDS-PAGE and western blotting using anti-mouse heavy and light chain antibodies and recombinant Sp17 protein (FIGS. 2 & 3). The chAB2 antibody was reactive to mouse surface Sp17 protein expressed on the mouse ovarian cancer cell line ID8 (FIG. 4).
A general note: In SPR one partner is held on a chip, and binding of the other changes the refractive index at the surface.

Series [4] concerns the target T1, recombinant 6His-Sp17 protein. Briefly: surface plasmon resonance (Biacore T200), 6His-Sp17 at 6.25-300 nanomolar as analyte.
Text: as §1, §2

The target of series [5] is T2, mouse surface Sp17 protein expressed on the mouse ovarian cancer cell line ID8 (Mus musculus, UniProt Q62252).
T2 construct: mouse surface Sp17 protein expressed on the mouse ovarian cancer cell line ID8; endogenous in cells; host or cells: ID8 mouse ovarian cancer cells
T2 sequence (Q62252 1-149): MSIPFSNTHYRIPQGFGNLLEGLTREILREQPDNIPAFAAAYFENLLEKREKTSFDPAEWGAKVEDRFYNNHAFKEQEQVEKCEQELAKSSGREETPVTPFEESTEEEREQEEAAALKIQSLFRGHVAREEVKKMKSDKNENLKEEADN
Briefly: Flow cytometry of ID8 cells labeled with chAB2 and anti-mouse FITC antibody. Particulars: relative to anti-mouse FITC antibody alone. Format: cell-based. The procedure: FIG. 4 consists of three panels. The left panel is a graph that depicts flow cytometry results for ID8 cells incubated with an anti-mouse fluorescein isothiocyanate (FITC) antibody, but without a primary antibody. The middle panel is a graph that depicts flow cytometry results for ID8 cells labeled with the anti-Sp17 antibody chAB2 and the anti-mouse FITC antibody.
(§3) The nucleotide sequences encoding the VH and VL regions of Example 1 were cloned into a […] heavy chain gene and a mouse kappa light chain gene, respectively, and expressed in CHO-S cells to produce a mouse-human chimeric antibody, which was named chAB2. Successful generation of the antibody was confirmed by SDS-PAGE and western blotting using anti-mouse heavy and light chain antibodies and recombinant Sp17 protein (FIGS. 2 & 3).

The target in series [6] is T3, recombinant 6His-Sp17 protein (Homo sapiens, UniProt Q15506).
T3 construct: 6His
T3 sequence (Q15506 1-151): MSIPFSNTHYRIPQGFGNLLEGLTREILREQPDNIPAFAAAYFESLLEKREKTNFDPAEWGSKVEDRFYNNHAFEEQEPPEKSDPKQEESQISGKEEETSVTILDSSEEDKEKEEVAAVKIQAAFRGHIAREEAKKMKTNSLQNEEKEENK
Briefly: Surface plasmon resonance (Biacore T200) of chAB2 binding to Sp17. As to conditions: SPR.
Text: as §1, §3

Another series concerns 33 normal human tissues. Briefly: Immunohistochemistry on a normal tissue microarray (specificity). Type of series: binding. How it is done: The specificity of the chAB2 antibody for Sp17 was determined with immunohistochemistry on a normal tissue microarray, which consisted of 33 normal tissues obtained from 2-3 human donors per tissue. The normal tissues included brain, eye, adrenal gland, hypophyseal, thyroid, parathyroid, tonsil, thymus, spleen, heart, lung, larynx, esophagus, stomach, small intestine, colon, liver, pancreas, salivary gland, kidney, bone, skeletal, skin, peripheral nerve, mesothelial, breast, ovary, endometrium, cervix, testis, and prostate.

[7] abbreviates: SK-OV-3 cells at 1000 cells/well.
Setting [8] is: SK-OV-3 cells at 2000 cells/well.
Setting [9] is: SK-OV-3 cells at 3000 cells/well.

“Also recorded” adds a separate entry of the source. Starred links: 1 amine or outer side, 2 acyl side, 3 side chain; linkers in the order of their positions; H or OH if unused. Non-standard residues stand in square brackets, D forms with d. Residues, ends and D or L forms follow the SMILES beside them. *: point of attachment. Exatecan = CC[C@@]1(O)C(=O)OCc2c1cc1n(c2=O)Cc2c-1nc1cc(F)c(C)c3c1c2[C@@H](N*)CC3; Hexanoyl(6-maleimido) = O=C1C=CC(=O)N1CCCCCC(=O)*; NHCH2OCH2CO = O=C(COCN[*:1])[*:2]

Regarding `CC[C@@]1(O)C(=O)OCc2c1cc1n(c2=O)Cc2c-1nc1cc(F)c(C)c3c1c2[C@@H](NC(=O)COCNC(=O)CNC(=O)[C@H](Cc1ccccc1)NC(=O)CNC(=O)CNC(=O)CCCCCN1C(=O)C=CC1=O)CC3` [deruxtecan] ({Hexanoyl(6-maleimido)}-GGFG[NHCH2OCH2CO]-Exatecan), the “Max Cytotoxicity” value with SK-OV-3 cells [1] was 97; in the series on SK-OV-3 cells [2] (setting [7]) it was 98; in the series with SK-OV-3 cells [2] (setting [8]), 97; in the series with SK-OV-3 cells [2] (setting [9]), 97; with ID8 cells (ID8 cells at 250 cells/well) it was 94; with ID8 cells (ID8 cells at 500 cells/well), 93. In addition, the IC50 is 0.75 nM in the series with SK-OV-3 cells [2] (setting [7]), 1.1 nM in the series on SK-OV-3 cells [2] (setting [8]) and 1.2 nM in the series with SK-OV-3 cells [2] (setting [9]).

B1: mouse-human chimeric anti-Sp17 IgG2a/kappa monoclonal antibody chAB2 (antibody, V domains shown)
VH: QVQLQQSGAEVKKPGSSVKVSCKASGGTFSSYAISWVRQAPGQGLEWMGRIIPILGIANYAQKFQGRVTITADKSTSTAYMELSSLRSEDTAVYYCARPSEEVVAAYGAFDIWGQGTTVTVSS
VL: EIVLTQSPLSLPVRPGEPASISCRASQSLLRSDGFNYLDWYLQKPGQSPQLLVYLGSNRASGVPDRFSGSGSGTDFTLKISRVEAEDVGVYYCMQAVQTPYIFGQGTKLEIK
notes: also called chimeric antibody; anti-Sp17 antibody chAB2
In the case of B1, in series [3], the koff was 0.00013 s⁻¹ and the kon was found to be 62600 M⁻¹ s⁻¹. In addition, the Kd in series [4] worked out at 2.07 nM.

B2: chAB2: mouse-human chimeric anti-Sp17 antibody: human VH/VL in mouse IgG2a heavy chain and mouse kappa light chain, expressed in CHO-S cells (antibody, V domains shown)
VH: QVQLQQSGAEVKKPGSSVKVSCKASGGTFSSYAISWVRQAPGQGLEWMGRIIPILGIANYAQKFQGRVTITADKSTSTAYMELSSLRSEDTAVYYCARPSEEVVAAYGAFDIWGQGTTVTVSS
VL: EIVLTQSPLSLPVRPGEPASISCRASQSLLRSDGFNYLDWYLQKPGQSPQLLVYLGSNRASGVPDRFSGSGSGTDFTLKISRVEAEDVGVYYCMQAVQTPYIFGQGTKLEIK
B2: in series [5], the “reactivity to surface Sp17 on ID8 cells (mean fluorescent intensity)” value was “reactive to mouse surface Sp17 protein; also recorded: increased mean fluorescent intensity”. Further, the “association rate constant (ka)” value in series [6] (6.25-300 nanomolar 6His-Sp17) was 62,600 per mole per second. Moreover, the Kd in series [6] (read-out: dissociation constant (KD)) is about 2 nM. For the same molecule, the “binding to / cross-reactivity with normal tissues (immunohistochemistry)” value in the series on 33 normal human tissues (33 normal tissues, 2-3 human donors per tissue) is listed as “lack detectable cross-reactivity; also recorded: did not bind to normal tissues”. In addition, the “binding to testis (immunohistochemistry)” value in the series on 33 normal human tissues (testis tissue) is on record as “bound to testis”.
